In patent publication US20210196838A1, “COMPOUNDS AND COMPOSITIONS FOR POTENTIATION OF TLR AGONISTS” (priority 2018, published 2021):

Key:
[1] = tested on: rainbow trout gut cells (RT-gut); experiment: Uptake of fluorescently labelled poly IC in RT-gut cells; format: cell-based; details: 1 ug/ml, 20 degree treatment, 4 hours
[2] = tested on: vesicular stomatitis virus-green fluorescent protein (VSV-GFP); format: cell-based
viral infection = details: free agonist dosing provided by Zhao et. al, 2012; cited from earlier work

For “polyinosinic:polycytidylic acid [poly IC]”, the intracellular fluorescence [1] is given as “no fluorescence was detected”, the “equivalent dose in an antiviral assay” value [2] is given as 1000 µg/mL and the “dose sufficient to protect mice from viral infection” value (viral infection) is given as 20 µg.
